Laboratory results published in patent US9974792B2, “Methods for treating cancers” (Gilead Sciences, Inc., priority 2013, dated 2018).

Key:
[1] = system: subjects with CLL, FL, lymphoplasmacytoid lymphoma/SLL/marginal zone lymphoma, MCL, or DLBCL; test: Example 2: phase 2 trial, safety analysis of all treated subjects
Procedure: A phase 2, open-label, single-agent study was completed to evaluate the efficacy, safety, tolerability, and pharmacodynamics of entospletinib in subjects with relapsed or refractory hematologic malignancies.
Treatment with entospletinib was at a dose of 800 mg twice a day over 28-day cycles under fasted conditions. Fasting was defined as no food or liquids other than water for 2 hours pre- and 1 hour post-dose.
Secondary end points included tolerability, objective response rate (ORR), duration of response (DOR), time to response, and lymph node response rate. […] Exploratory end points included plasma drug concentrations and pharmacodynamic biomarkers.
Subjects were allowed to enroll in the study if they had cytopenias due to CLL. Treatment-emergent cytopenias were defined as a cytopenia that worsened in the period from the first dose of study treatment to 30 days after the last dose of study treatment.

[2] = system: human subjects with CLL or NHL; test: Example 1: safety, disposition and adverse events (Safety Data Set);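 note: evaluated subjects had CLL, FL, DLBCL, MCL, LPL, SLL or MZL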
Procedure: Subjects having various hematologic malignancies were evaluated, including subjects with chronic lymphocytic leukemia (CLL), follicular lymphoma (FL), diffuse large B-cell lymphoma (DLBCL), mantle cell lymphoma (MCL), lymphoplasmacytic lymphoma (LPL), small lymphocytic lymphoma (SLL), and marginal zone lymphoma (MZL). The sample size was 10-40/arm.
Alanine aminotransferase (ALT) was also measured in the subjects.

CCL4 = test: Example 2: serum levels of BCR-induced chemokines; format: in vivo, human; conditions: days 8 and 29 of treatment
Description: (§1) A bone marrow biopsy and aspirate were collected for confirmatory purposes for all subjects who achieved a complete response (CR) or to confirm suspected PD based solely upon declines in the platelet count and/or hemoglobin. Pharmacodynamic assessments, including serum cytokines and protein phosphorylation in circulating CLL cells, occurred before starting therapy and at designated time points thereafter.

CCL3 = test: Example 2: serum levels of BCR-induced chemokines; format: in vivo, human; conditions: days 8 and 29 of treatment
Description: as §1

[3] = out of 78 subjects, 800 mg BID fasting

c1cn2cc(-c3ccc4cn[nH]c4c3)nc(Nc3ccc(N4CCOCC4)cc3)c2n1 [compound of formula I, 6-(1H-indazol-6-yl)-N-(4-morpholinophenyl)imidazo[1,2-a]pyrazin-8-amine]
AE leading to study drug discontinuation: fatigue ([1]; N = 145): 3 n | AE leading to study drug discontinuation: headache ([1]; N = 145): 3 n | AE leading to study drug discontinuation: increased ALT ([1]; N = 145): 3 n | AEs resulting in discontinuation, % of all treated subjects ([1]; N = 145): 14.5% | AEs resulting in dose reduction, % of all treated subjects ([1]; N = 145): 7.6% | Constipation, Any grade, % ([1]; N = 145): (24.1) % | Constipation, At least grade 3, % ([1]; N = 145): (1.4) % | Cough, Any grade, % ([1]; N = 145): (19.3) % | Cough, At least grade 3, % ([1]; N = 145): (0.7) % | Decreased appetite, Any grade, % ([1]; N = 145): (24.1) % | Decreased appetite, At least grade 3, % ([1]; N = 145): (0.7) % | Diarrhea, Any grade, % ([1]; N = 145): (34.5) % | Diarrhea, At least grade 3, % ([1]; N = 145): (0.7) % | Dizziness, Any grade, % ([1]; N = 145): (20.7) % | Dizziness, At least grade 3, % ([1]; N = 145): (0.7) % | Fatigue, Any grade, % ([1]; N = 145): (51.7) % | Fatigue, At least grade 3, % ([1]; N = 145): (6.9) % | Grade 3 fatigue, % ([1]; N = 145): 6.9% | Grade 3 fatigue, subjects ([1]; N = 145): 10 subjects | Headache, Any grade, % ([1]; N = 145): (22.8) % | Headache, At least grade 3, % ([1]; N = 145): (0.7) % | Insomnia, Any grade, % ([1]; N = 145): (15.9) % | Laboratory abnormality: Anemia, Any grade, % ([1]; N = 145): (37.2) % | Laboratory abnormality: Increased ALT, Any grade, % ([1]; N = 145): (37.2) % | Laboratory abnormality: Increased ALT, At least grade 3, % ([1]; N = 145): (13.8) % | Laboratory abnormality: Increased AST, Any grade, % ([1]; N = 145): (33.8) % | Laboratory abnormality: Increased AST, At least grade 3, % ([1]; N = 145): (12.4) % | Laboratory abnormality: Neutropenia, Any grade, % ([1]; N = 145): (32.4) % | Laboratory abnormality: Thrombocytopenia, Any grade, % ([1]; N = 145): (6.9) % | Laboratory abnormality: Thrombocytopenia, At least grade 3, % ([1]; N = 145): (2.8) % | Laboratory abnormality: Total bilirubin, Any grade, % ([1]; N = 145): (31.0) % | Laboratory abnormality: Total bilirubin, At least grade 3, % ([1]; N = 145): (4.1) % | Nausea, Any grade, % ([1]; N = 145): (40) % | Nausea, At least grade 3, % ([1]; N = 145): (3.4) % | Pyrexia, Any grade, % ([1]; N = 145): (21.4) % | Pyrexia, At least grade 3, % ([1]; N = 145): (2.1) % | Serious AE: Anemia, % ([1]; N = 145): (2.1) % | Serious AE: Back pain, % ([1]; N = 145): (2.1) % | Serious AE: Chest pain, % ([1]; N = 145): (2.1) % | Serious AE: Dyspnea, % ([1]; N = 145): (3.4) % | Serious AE: Febrile neutropenia, % ([1]; N = 145): (2.8) % | Serious AE: Pneumonia, % ([1]; N = 145): (3.4) % | Serious AE: Pyrexia, % ([1]; N = 145): (2.8) % | grade 2 rash, % ([1]; N = 145): 1.4% | grade 3 dyspnea, % ([1]; N = 145): 6.2% | grade 3 nausea, % ([1]; N = 145): 3.4% | grade 3 rash, % ([1]; N = 145): 1.4% | grade 4 rash, % ([1]; N = 145): 0.7% | subjects with a treatment-emergent AE that led to study drug discontinuation ([1]; N = 145): 15.2% | subjects with a treatment-emergent, serious AE ([1]; N = 145): 31.0% | subjects who died while on study, % ([1]; N=145, none attributed by the investigator to entospletinib): 12.4% | subjects with at least one AE ([1]; all treated subjects N=145): 94.5% | time to grade 3 or 4 ALT/AST elevation, first quartile ([1]; human, in vivo, 800 mg): 4.1 weeks | time to grade 3 or 4 ALT/AST elevation, third quartile ([1]; human, in vivo, 800 mg): 6.1 weeks | subjects with ALT/AST elevation who resumed after interruption without further event, % ([1]; of 21 subjects): 57.1% | grade 3 or 4 ALT/AST elevations that occurred by 6 weeks ([1]; of 21 subjects with elevations): 10 | Reversible grade 3 or 4 ALT/AST elevations, % ([1]; of 145 subjects): 14.5% | Reversible grade 3 or 4 ALT/AST elevations, subjects ([1]; of 145 subjects): 21 subjects | deaths on study due to disease progression ([1]; of eighteen deaths): 13 | tolerability ([1]; phase 2 study): well tolerated | Discontinuing study drug: Adverse Events, % ([2]; ALL N = 78): (14.1%) | Discontinuing study drug: Progressive Disease, % ([2]; ALL N = 78): (19.2%) | Discontinuing study drug: Related AEs, % ([2]; ALL N = 78): (7.7%) | Discontinuing study drug: Adverse Events, % ([2]; CLL N = 39): (7.7%) | Discontinuing study drug: Progressive Disease, % ([2]; CLL N = 39): (10.3%) | Discontinuing study drug: Related AEs, % ([2]; CLL N = 39): (5.1%) | Discontinuing study drug: Adverse Events, % ([2]; NHL N = 39): (20.5%) | Discontinuing study drug: Progressive Disease, % ([2]; NHL N = 39): (28.2%) | Discontinuing study drug: Related AEs, % ([2]; NHL N = 39): (10.3%) | Any event, All Grades, % ([2]; Safety Data Set N=78): (93.6) % | Constipation, All Grades, % ([2]; Safety Data Set N=78): (21.8) % | Constipation, Grade 1 ([2]; Safety Data Set N=78): 11 | Constipation, Grade 2 ([2]; Safety Data Set N=78): 5 | Constipation, Grade 3 ([2]; Safety Data Set N=78): 1 | Cough, All Grades, % ([2]; Safety Data Set N=78): (14.1) % | Cough, Grade 1 ([2]; Safety Data Set N=78): 9 | Cough, Grade 2 ([2]; Safety Data Set N=78): 1 | Cough, Grade 3 ([2]; Safety Data Set N=78): 1 | Decreased appetite, All Grades, % ([2]; Safety Data Set N=78): (20.5) % | Decreased appetite, Grade 1 ([2]; Safety Data Set N=78): 10 | Decreased appetite, Grade 2 ([2]; Safety Data Set N=78): 6 | Diarrhea, All Grades, % ([2]; Safety Data Set N=78): (28.2) % | Diarrhea, Grade 1 ([2]; Safety Data Set N=78): 20 | Diarrhea, Grade 2 ([2]; Safety Data Set N=78): 2 | Dizziness, All Grades, % ([2]; Safety Data Set N=78): (17.9) % | Dizziness, Grade 1 ([2]; Safety Data Set N=78): 14 | Dyspepsia, All Grades, % ([2]; Safety Data Set N=78): (10.3) % | Dyspepsia, Grade 1 ([2]; Safety Data Set N=78): 3 | Dyspepsia, Grade 2 ([2]; Safety Data Set N=78): 5 | Fatigue, All Grades, % ([2]; Safety Data Set N=78): (43.6) % | Fatigue, Grade 1 ([2]; Safety Data Set N=78): 13 | Fatigue, Grade 2 ([2]; Safety Data Set N=78): 16 | Fatigue, Grade 3 ([2]; Safety Data Set N=78): 5 | Headache, All Grades, % ([2]; Safety Data Set N=78): (20.5) % | Headache, Grade 1 ([2]; Safety Data Set N=78): 13 | Headache, Grade 2 ([2]; Safety Data Set N=78): 2 | Headache, Grade 3 ([2]; Safety Data Set N=78): 1 | Insomnia, All Grades, % ([2]; Safety Data Set N=78): (14.1) % | Insomnia, Grade 1 ([2]; Safety Data Set N=78): 8 | Insomnia, Grade 2 ([2]; Safety Data Set N=78): 3 | Nausea, All Grades, % ([2]; Safety Data Set N=78): (30.8) % | Nausea, Grade 1 ([2]; Safety Data Set N=78): 18 | Nausea, Grade 2 ([2]; Safety Data Set N=78): 4 | Nausea, Grade 3 ([2]; Safety Data Set N=78): 2 | Oedema peripheral, All Grades, % ([2]; Safety Data Set N=78): (12.8) % | Oedema peripheral, Grade 1 ([2]; Safety Data Set N=78): 8 | Oedema peripheral, Grade 2 ([2]; Safety Data Set N=78): 2 | Pyrexia, All Grades, % ([2]; Safety Data Set N=78): (19.2) % | Pyrexia, Grade 1 ([2]; Safety Data Set N=78): 9 | Pyrexia, Grade 2 ([2]; Safety Data Set N=78): 6 | Vomiting, All Grades, % ([2]; Safety Data Set N=78): (10.3) % | Vomiting, Grade 1 ([2]; Safety Data Set N=78): 6 | Vomiting, Grade 2 ([2]; Safety Data Set N=78): 2 | Grade 3 and 4 reversible ALT elevations, % of subjects [2, 3]: 12% | Grade 3 and 4 reversible ALT elevations, number of subjects [2, 3]: 9 subjects | serum levels of BCR-induced CCL4 (CCL4): Significant reductions | serum levels of BCR-induced CCL3 (CCL3): Significant reductions
